# Reference: patent publication US5384408A, “Substituted pyrazine and its salts, compositions containing them and their use in medicine” (priority 1993, dated 1995)
# “Also recorded” adds a separate entry of the source. Where two headings read alike, the source gives them in different places.
# Assays:
# [1] = target: T1, M3 muscarinic receptor (Cavia porcellus, UniProt H0W1Z3); test: M3 muscarinic activity, ileum preparation (method of Freedman et al.); format: biochemical, guinea pig; conditions: for M3 receptor action (in words): ileum assay
# T1 construct: involving ileum preparation; from tissue; host or cells: ileum (guinea pig by b7)
# T1 sequence (H0W1Z3 1-590): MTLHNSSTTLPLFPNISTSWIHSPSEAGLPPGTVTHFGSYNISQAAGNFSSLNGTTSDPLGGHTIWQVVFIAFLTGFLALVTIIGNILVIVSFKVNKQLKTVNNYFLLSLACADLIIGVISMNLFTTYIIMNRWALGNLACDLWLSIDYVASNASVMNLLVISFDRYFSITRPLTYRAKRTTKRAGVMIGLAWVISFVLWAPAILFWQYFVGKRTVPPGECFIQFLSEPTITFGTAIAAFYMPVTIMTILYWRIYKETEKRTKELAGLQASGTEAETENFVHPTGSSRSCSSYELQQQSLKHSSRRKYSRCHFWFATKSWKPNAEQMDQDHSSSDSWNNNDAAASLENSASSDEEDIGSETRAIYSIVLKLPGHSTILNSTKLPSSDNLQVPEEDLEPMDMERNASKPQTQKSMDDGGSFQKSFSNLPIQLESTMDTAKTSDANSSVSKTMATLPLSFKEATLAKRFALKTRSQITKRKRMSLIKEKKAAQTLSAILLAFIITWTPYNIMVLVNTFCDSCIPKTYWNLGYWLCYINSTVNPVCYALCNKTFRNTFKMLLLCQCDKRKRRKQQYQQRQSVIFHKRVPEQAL
# [2] = target: T2, M1 muscarinic receptor (Rattus norvegicus, UniProt P08482); test: M1 muscarinic activity (method of Newberry et al.); format: biochemical
# T2 construct: as measured in the rat ganglion; from tissue
# T2 sequence (P08482 1-460): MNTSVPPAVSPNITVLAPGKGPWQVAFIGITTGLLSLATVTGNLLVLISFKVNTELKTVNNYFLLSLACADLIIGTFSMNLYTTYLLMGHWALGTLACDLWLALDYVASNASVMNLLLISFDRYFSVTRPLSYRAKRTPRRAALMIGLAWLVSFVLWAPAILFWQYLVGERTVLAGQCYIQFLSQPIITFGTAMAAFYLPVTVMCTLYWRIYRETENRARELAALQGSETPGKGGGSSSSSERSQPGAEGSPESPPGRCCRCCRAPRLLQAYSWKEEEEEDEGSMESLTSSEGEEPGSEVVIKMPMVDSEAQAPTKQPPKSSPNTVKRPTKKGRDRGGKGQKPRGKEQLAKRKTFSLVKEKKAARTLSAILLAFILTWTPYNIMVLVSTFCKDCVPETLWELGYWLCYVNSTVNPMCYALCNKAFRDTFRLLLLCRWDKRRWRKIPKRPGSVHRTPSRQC
# From the text: (§1) European Patent Application No. 89200147 (Publication No. 327155) discloses a class of pyrazines, pyridazines or pyrimidines, and salts and prodrugs thereof, substituted on one of the ring carbon atoms thereof with a non-aromatic azacyclic or azabicyclic ring system; and independently substituted on each of the other ring carbon atoms with a substituent of low lipophilicity or a hydrocarbon substituent, which compounds stimulate cholinergic transmission.
# The following two compounds: 3(R)-[2-(6-trifluoromethyl) pyrazinyl]-1-azabicyclo[2.2.2]octane (Compound 1), and 3(R)-[2-(6chloro)pyrazinyl]-1-azabicyclo[2.2.2]octane (Compound 2) were tested for muscarinic activity using the method of Newberry, et al. (Br. J. Pharmacol, 1987, pp. 817-876). The specific M1 muscarinic activities of Compound 1 and Compound 2 were determined and the results are as follows: […]
# [3] = target: T3, M1 (ganglion) (Rattus norvegicus, UniProt P08482); test: functional selectivity, ganglion M1 agonist activity (methods of J. Med. Chem. 1987, 30, 969-975); format: biochemical
# T3 construct: as measured in the rat ganglion; from tissue; host or cells: rat ganglion
# T3 sequence (P08482 1-460): T2 sequence (P08482 1-460)
# From the text: as §1
# (§2) 1. By the methods disclosed in J. Med. Chem. (1987), 30, 969-975 was determined the functional selectivity of compound (I): […]
# [4] = target: T4, M2 (heart) (Cavia porcellus, UniProt H0VRN8); test: functional selectivity, heart M2 antagonist activity (methods of J. Med. Chem. 1987, 30, 969-975); format: biochemical, guinea pig
# T4 construct: as measured in the guinea pig heart; from tissue; host or cells: guinea pig heart
# T4 sequence (H0VRN8 1-466): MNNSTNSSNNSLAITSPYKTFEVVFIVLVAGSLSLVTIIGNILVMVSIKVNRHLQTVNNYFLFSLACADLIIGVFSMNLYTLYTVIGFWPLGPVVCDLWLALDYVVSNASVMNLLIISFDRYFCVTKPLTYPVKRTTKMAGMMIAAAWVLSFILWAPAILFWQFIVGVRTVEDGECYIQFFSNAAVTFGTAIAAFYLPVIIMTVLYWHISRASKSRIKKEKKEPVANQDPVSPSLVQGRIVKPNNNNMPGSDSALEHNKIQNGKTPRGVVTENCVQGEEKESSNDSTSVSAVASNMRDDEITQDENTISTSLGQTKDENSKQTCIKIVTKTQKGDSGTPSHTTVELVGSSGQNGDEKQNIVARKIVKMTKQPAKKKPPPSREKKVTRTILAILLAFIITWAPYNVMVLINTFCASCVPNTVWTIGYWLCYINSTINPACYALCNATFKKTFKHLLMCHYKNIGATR
# From the text: as §1, §2
# [5] = target: T5, M3 (ileum) (Cavia porcellus, UniProt H0W1Z3); test: functional selectivity, ileum M3 antagonist activity (methods of J. Med. Chem. 1987, 30, 969-975); format: biochemical, guinea pig
# T5 construct: guinea pig heart and guinea pig ileum; from tissue; host or cells: guinea pig ileum
# T5 sequence (H0W1Z3 1-590): as the sequence (H0W1Z3 1-590) above
# From the text: as §1, §2
# [6] = tested on: M3 muscarinic receptor; test: M3 muscarinic activity, ileum preparation (method of Freedman et al.); format: biochemical, guinea pig; conditions: versus reference 6-Cl compound
# [7] = tested on: intraocular pressure; test: Glaucoma method: intraocular pressure in African Green monkeys; format: in vivo
# Description: Male or female African Green monkeys (2.0-4.5 kg) were fasted following their afternoon feeding on the day prior to the experiment. The monkeys were anaesthetised in their cages with approximately 10 mg/kg i.m. ketamine HCl (Vetalar or Ketaset). Once sedated, the animals were restrained in monkey chairs and brought to the laboratory. One drop of 0.5% proparacaine (Ophthetic) was instilled into each eye. After 30 seconds, intraocular pressure (IOP) determinations were taken in each eye (control or "0" time reading) using a Digilab Modular One Pneuma Tonometer. Both eyes were then flushed with saline. Vehicle or test agent (0.0005-2.0%) was administered (25 μl) into the cul-de-sac of both eyes and the IOP was determined at 0.5 and 1.0 hour and at hourly intervals thereafter for up to 5 hours and compared to the control IOP. For ocular instillation, 0.5% hydroxyethylcellulose (HEC) was employed as the vehicle. Supplemental doses of 10 mg or more/animal i.m. ketamine HCl were given 3-5 minutes prior to IOP determinations. Proparacaine HCl (0.5%) (one drop/eye) was also instilled immediately prior to IOP determinations. Following the final IOP determination, both eyes were flushed liberally with saline and a sterile ophthalmic ointment (Ilotycin, erythromycin, 5 mg/gm) was applied. […] Pupil diameter was measured under standard laboratory lighting conditions using a millimeter ruler. […]
# [8] = listed as 6-C1 reference compound
smiles,measurement,setting,value
"Clc1cncc([C@H]2CN3CCC2CC3)n1 [Compound 2, 3(R)-[2-(6chloro)pyrazinyl]-1-azabicyclo[2.2.2]octane, reference compound]",EC50,[1],30 nM
same,M3 receptor action (in words),[1],M3 receptor agonist
same,M3 receptor action (in words),[1]; [8],agonist on M3 receptors
same,M3 muscarinic activity pA2,"[1]; ileum preparation, antagonist",no measurable pA2 data
same,M1 muscarinic activity (in words),[2],possess M1 muscarinic activity
same,M1 muscarinic activity (in words),[2]; [8],agonist on M1 receptors
FC(F)(F)c1cncc([C@@H]2CN3CCC2CC3)n1 [(-) base isomer],Ganglion M1 (EC50),[3],no agonist effect
same,Kb,"[4]; heart, antagonist, read-out: Heart M2 (pA2) (converted)",100 nM
same,Kb,"[5]; ileum, antagonist, read-out: Ileum M3 (pA2) (converted)",63.1 nM
"FC(F)(F)c1cncc(C2CN3CCC2CC3)n1 (racemic) [(±) racemate, (±)-3-[2-(6-Trifluoromethylpyrazin)yl]-1-azabicyclo[2.2.2]octane]",EC50,[3],500 nM
same,Kb,[4],25.1 nM
same,Kb,[5],79.4 nM
"FC(F)(F)c1cncc([C@H]2CN3CCC2CC3)n1 [(I): (+) base isomer, (R)-(+)-3-[2-(6-Trifluoromethylpyrazin)yl]-1-azabicyclo[2.2.2]octane]","selectivity of action, M1 over M3 (in words)",[6],significantly greater selectivity of action
same,Kb,[1],15.8 nM
same,M3 receptor action (in words),[1]; listed as 6-CF3 compound,not an agonist at the M3 receptor; also recorded: not an agonist of M3 receptors
same,M3 receptor action (in words),[1]; listed as Compound 1,acts as antagonist on M3 receptors
same,EC50,[3],200 nM
same,Kb,[4],15.8 nM
same,Kb,[5],15.8 nM
same,Change in IOP (maximum mm Hg change in intraocular pressure),"[7]; 0.05%, 25 μl into cul-de-sac of both eyes, up to 5 hours",-3.5 mm Hg
same,intraocular pressure lowering (in words),[7]; glaucoma test,positive lowering of intraocular pressure
same,EC50,[2],200 nM
same,M1 muscarinic activity (in words),[2]; listed as 6-CF3 compound,retains M 1 muscarinic agonist activity comparable to that of the reference 6-C1 compound
same,M1 muscarinic activity (in words),[2]; listed as Compound 1,possess M1 muscarinic activity
